In ChEMBL document CHEMBL1147609, “Comparison of 2-phenylspiroindenes and 2-phenylspiroindenediones as estrogen receptor ligands--modeling and binding data don't agree!” (Bioorg Med Chem Lett, 2004):
pIC50: −log10 of the molar value.

What was measured:
[1] = biological target: Estrogen receptor beta (Homo sapiens, UniProt Q92731); assay: Binding affinity for estrogen receptor beta
[2] = biological target: T1, Estrogen receptor (Homo sapiens, UniProt P03372); assay: Binding affinity for estrogen receptor alpha
T1 sequence (P03372 whole entry): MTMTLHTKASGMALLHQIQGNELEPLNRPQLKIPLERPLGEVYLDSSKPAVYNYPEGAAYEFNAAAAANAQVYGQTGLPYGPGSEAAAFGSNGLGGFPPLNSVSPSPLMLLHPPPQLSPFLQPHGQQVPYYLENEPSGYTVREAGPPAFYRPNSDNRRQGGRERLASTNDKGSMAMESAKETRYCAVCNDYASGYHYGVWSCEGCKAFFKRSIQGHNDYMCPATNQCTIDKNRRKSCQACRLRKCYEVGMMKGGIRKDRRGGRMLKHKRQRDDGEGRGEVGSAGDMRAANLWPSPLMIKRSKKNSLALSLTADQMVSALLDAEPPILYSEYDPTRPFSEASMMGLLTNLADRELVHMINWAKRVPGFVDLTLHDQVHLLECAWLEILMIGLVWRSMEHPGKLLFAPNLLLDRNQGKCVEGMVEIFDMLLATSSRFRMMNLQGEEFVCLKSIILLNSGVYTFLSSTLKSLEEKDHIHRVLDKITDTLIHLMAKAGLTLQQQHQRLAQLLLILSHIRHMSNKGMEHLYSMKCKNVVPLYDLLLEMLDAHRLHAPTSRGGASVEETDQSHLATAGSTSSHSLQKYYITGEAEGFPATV

Sequence of Estrogen receptor beta (Q92731 whole entry): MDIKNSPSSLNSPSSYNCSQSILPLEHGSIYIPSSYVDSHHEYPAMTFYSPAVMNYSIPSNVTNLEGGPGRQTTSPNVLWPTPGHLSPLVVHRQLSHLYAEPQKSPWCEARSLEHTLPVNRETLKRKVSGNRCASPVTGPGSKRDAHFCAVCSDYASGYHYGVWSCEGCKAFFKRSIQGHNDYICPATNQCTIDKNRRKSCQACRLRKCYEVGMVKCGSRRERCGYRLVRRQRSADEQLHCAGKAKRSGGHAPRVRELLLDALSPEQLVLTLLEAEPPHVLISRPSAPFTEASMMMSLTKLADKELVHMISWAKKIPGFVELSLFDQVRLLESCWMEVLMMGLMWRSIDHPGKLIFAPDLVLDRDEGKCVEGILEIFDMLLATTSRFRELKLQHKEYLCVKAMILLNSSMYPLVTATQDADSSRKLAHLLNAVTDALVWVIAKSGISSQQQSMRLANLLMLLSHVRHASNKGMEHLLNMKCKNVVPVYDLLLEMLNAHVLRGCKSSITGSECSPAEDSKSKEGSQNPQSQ

pIC50 [1]	pIC50 [2]	Compound
8.74	–	Oc1ccc(C2=Cc3cc(O)ccc3C23Cc2ccc(OCCN4CCCCC4)cc2C3)cc1 (centres undefined)
6.65	6.76	O=C1c2ccc(OCCN3CCCCC3)cc2C(=O)C12C(c1ccc(O)cc1)=Cc1cc(O)ccc12 (centres undefined)

Second part, the compound before the results:

Compound	pIC50 [1]	pIC50 [2]
Oc1cccc(C2=Cc3cc(O)ccc3C23Cc2ccccc2C3)c1	7.55	7.46
O=C1c2ccccc2C(=O)C12C(c1ccc(O)cc1)=Cc1cc(O)ccc12	6.99	7.04
O=C1c2ccccc2C(=O)C12C(c1cccc(O)c1)=Cc1cc(O)ccc12	6.48	6.44
